Test results as given in patent US12257253B2, “Triamterene or nolatrexed for use in the treatment of phenylketonuria” (SOM INNOVATION BIOTECH, S.A., priority 2019, dated 2025).

Legend:
wild-type PAH [1] = target: T1, wild-type PAH (Homo sapiens (Human), UniProt P00439); test: Thermal stability shift assay (DSF); assay type: binding; conditions: compound 30 μM (BH4 43 μM)
Text: (§1) 1. Thermal Stability Shift Assay
(§2) Thórólfsson et al. (Biochemistry, 2002, 41(24), 7573-7585) describe that the thermal denaturation of hPAH occurs in three stages: (i) unfolding of the four regulatory domains, which is responsible for the low-temperature calorimetric transition (ii) unfolding of two (out of the four) catalytic domains, which is responsible for the high-temperature transition; and (iii) irreversible protein denaturation. The most important domain for stabilization is the regulatory domain.
(§3) Thus, to test the compound effect on thermal stability of the target protein a thermal stability shift assay (also called differential scanning fluorimetry (DSF)) was performed [Niesen F. H. et al., Nat Protoc., 2007, 2(9), 2212-2221; Gersting S. W. et al., Human Molecular Genetics, 2010, 19(10), 2039-2049; and Gersting S. W. et al., J. Biol Chem. 2010, 285(40), 30686-30697]. DSF monitors thermal unfolding of proteins in the presence of a fluorescent dye (SYPRO Orange; λexc=465 nm, λem=610 nm) and was performed using a real-time PCR instrument (Applied BioSystems 7000HT Fast Real-Time PCR System). Compounds that increase the midpoints of thermal denaturation (Tm) are considered to bind and stabilize the protein.
(§4) In brief, purified wild-type or Arg261Gln (which is the most frequent mutation responsive to BH4) PAH proteins (diluted in 20 mM NaHEPES, pH 7.0 and 200 mM NaCl, 2 mM DTT to 2 mg/ml) were used at a final concentration of 0.2 mg/ml protein per sample. The compounds were tested at a final concentration of 30 μM. A no compound control (NCC) was used according to the compound solvent at a final concentration of 2% (H2O, DMSO, ethanol, methanol). As a positive control we used the natural cofactor 6R-L-erythro-5,6,7,8-tetrahydrobiopterin (BH4, CAS 69056-38-8) stabilized in 100 mM dithiothreitol (DTT), in a final concentration of 43 μM. To exclude unspecific effects of the compound to the dye, a no protein control (NPC) was added (buffer, compound, dye). The measurement was performed in duplicates and samples were denatured by scanning a temperature range of 20 to 75° C. at a scan rate of 0.5° C./min.
(§5) The data was normalized and the respective Tm values were calculated by bi-phasic equation to determine temperatures at which half denaturation occurred (Software GraphPadPrism). To identify compound specific effects on the thermal stability of the target protein, the reference Tm (NCC) was used to calculate the temperature shift between compound treated and not treated protein (Tm−TmNCC), from duplicates, to provide transition midpoints shifts (ΔTm1 and ΔTm2). Tm1 and Tm2 are the two different transition mid point of the unfolding process of the protein as the tetrameric protein PAH unfolds in two steps due to its domains. A shift in Tm1 of 2° C. reflects a relevant increase in thermal stability on the regulatory domain and, thus, is considered a positive result.

Arg261Gln (R261Q) PAH [2] = target: T2, Arg261Gln (R261Q) PAH (Homo sapiens (Human), UniProt P00439, R261Q); test: Thermal stability shift assay (DSF); assay type: binding; conditions: compound 30 μM (BH4 43 μM)
T2 sequence (P00439 whole entry R261Q): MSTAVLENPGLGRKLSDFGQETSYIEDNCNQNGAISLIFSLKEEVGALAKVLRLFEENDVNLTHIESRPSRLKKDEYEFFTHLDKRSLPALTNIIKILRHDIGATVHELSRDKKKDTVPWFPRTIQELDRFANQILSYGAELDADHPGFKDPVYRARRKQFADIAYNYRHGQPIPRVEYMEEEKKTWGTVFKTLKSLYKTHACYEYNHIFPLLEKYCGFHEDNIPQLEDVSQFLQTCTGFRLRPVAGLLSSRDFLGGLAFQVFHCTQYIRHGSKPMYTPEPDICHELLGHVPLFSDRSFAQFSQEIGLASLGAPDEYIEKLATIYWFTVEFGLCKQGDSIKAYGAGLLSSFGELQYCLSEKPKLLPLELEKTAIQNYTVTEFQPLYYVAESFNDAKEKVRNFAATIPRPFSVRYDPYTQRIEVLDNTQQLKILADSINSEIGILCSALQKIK
Text: as §1, §2, §3, §4, §5

wild-type PAH [3] = target: T1, wild-type PAH; test: Phenylalanine hydroxylase residual protein amount (dot blot, COS-7 lysates); assay type: cell-based; conditions: COS-7 cells, compound 10 μM (sepiapterin 5 μM), 48 h; read-out: PAH protein level (immune blot signal) WT PAH Mean
Procedure: (§6) 3. Phenylalanine Hydroxylase Residual Protein Amount
(§7) The analysis of the residual PAH protein amount was based on the method described in Gersting S. W. et al., Human Molecular Genetics, 2010, 19(10), 2039-2049 with modifications.
(§8) Detection of the residual PAH protein amount was performed as a dot blot using the lysates obtained from the cell culture where transiently transfected COS-7 cells (with wild-type PAH or PAH variant) were exposed for 48 h to compounds. The experiment was carried out from the same samples as used for measuring enzyme activities.
(§9) 2 μl of the lysate were dropped onto the nitrocellulose membrane. The membrane was allowed to air dry at room temperature for 30 min followed by 40 min blocking in 5% milk in TBS-Tween (room temperature). The membrane was incubated with the mouse monoclonal primary antibody specific for PAH (Millipore, Cat. No. MAB5278, 1:1000 dilution in 5% milk in TBS-Tween) for overnight at 4° C. Next, the membrane was washed (3×10 min in TBS-Tween) and incubated with the secondary HRP-conjugated antibody (anti-mouse antibody; Santa Cruz Biotechnology, Inc., Cat. No. sc-2005; 1:1000 dilution in 5% milk in TBS-Tween) followed by thorough washing in TBS-Tween (3×10 min) and distilled water (1×10 min). Blots were visualized with Pierce™ ECL substrate (ThermoFisher Scientific, Cat No. 32106) and chemiluminescence was monitored with a DIANA III Imaging system or ChemiDoc™ MP Imaging System (BioRad). To analyze the compound effect on the PAH protein amount densitometry analysis was performed using ImageJ Software.
(§10) The effect of compound on PAH protein amount was calculated from triplicates. As for determination of the enzyme activity the background of the not transfected cells (NT) was subtracted from the transfected cells (NCC or compound treated). In the next step delta of the NCC versus compound treated cells was calculated. Residual protein amount greater than 100% represents an increase in the stability of the enzyme with respect to NCC.

Arg261Gln (R261Q) PAH [4] = target: T2, Arg261Gln (R261Q) PAH; test: as above; assay type: cell-based; conditions: COS-7 cells, compound 10 μM (sepiapterin 5 μM), 48 h; read-out: PAH protein level (immune blot signal) R261Q PAH Mean
Procedure: as §6, §7, §8, §9, §10

[5] = shift of transition midpoint 1 vs NCC
[6] = shift of transition midpoint 2 vs NCC

T1 sequence (P00439 whole entry): as the sequence (P00439 whole entry R261Q) above, with Q261R counted along it

ΔTm1 WT PAH (wild-type PAH [1]; [5]): 0.33 °C
ΔTm2 WT PAH (wild-type PAH [1]; [6]): 3.23 °C
ΔTm1 R261Q PAH (Arg261Gln (R261Q) PAH [2]; [5]): 2.21 °C
ΔTm2 R261Q PAH (Arg261Gln (R261Q) PAH [2]; [6]): 2.82 °C
PAH protein level (% of control) at 10 µM (wild-type PAH [3]): 110%
PAH protein level (% of control) at 10 µM (Arg261Gln (R261Q) PAH [4]): 130%
Compound: Nc1nc(N)c2nc(-c3ccccc3)c(N)nc2n1 [Triamterene, 2,4,7-triamino-6-phenylpteridine]
